{
  "source": "patent US10829798B2",
  "about": "“DNA-linked enzyme-coupled assays” (THE REGENTS OF THE UNIVERSITY OF CALIFORNIA, priority 2014, dated 2020)",
  "molecular_target": "T1, OleD (Streptomyces antibioticus, UniProt Q53685, P55A/R82V/R83E/T84P)",
  "T1 construct": "made in house; host or cells: PURExpress In Vitro Protein Synthesis Kit (NEB E6800L), cell-free transcription/translation, linear DNA with T7 promoter",
  "T1 sequence (Q53685 other isoform, or with tags, fused parts or gaps P55A/R82V/R83E/T84P)": "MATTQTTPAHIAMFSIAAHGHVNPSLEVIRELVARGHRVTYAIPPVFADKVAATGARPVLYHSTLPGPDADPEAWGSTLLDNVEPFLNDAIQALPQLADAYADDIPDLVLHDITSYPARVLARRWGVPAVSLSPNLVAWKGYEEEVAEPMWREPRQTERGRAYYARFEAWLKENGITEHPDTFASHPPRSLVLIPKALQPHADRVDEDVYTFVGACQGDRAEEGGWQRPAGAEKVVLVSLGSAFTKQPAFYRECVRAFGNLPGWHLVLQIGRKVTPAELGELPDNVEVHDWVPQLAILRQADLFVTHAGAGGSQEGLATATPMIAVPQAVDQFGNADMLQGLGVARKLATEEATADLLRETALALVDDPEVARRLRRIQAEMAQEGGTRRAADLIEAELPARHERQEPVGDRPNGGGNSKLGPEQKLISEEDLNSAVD",
  "assay": "FRET DLEnCA, cell-free transcription/translation-derived OleD, fluorescence readout",
  "assay_type": "biochemical",
  "conditions": "all components present; chemical 1 mM, UDP-Glc 5 μM, FRET probe 250 nM",
  "description": "FIG. 3A-FIG. 3D. DNA-Linked Enzyme-Coupled Assay using cell-free transcription/translation system. A. UDP-Glc was titrated into reactions containing 250 nM FRET probe, TbGT, and a cell-free transcription/translation system. After 3 hours incubation at 37° C., probe was digested with MfeI and resulting digests were analyzed using fluorescent spectrometry (n=6, error bars=standard error). B. DNA encoding OleD (5 nM) was incubated in a cell-free transcription/translation system for 3 hours at 37° C., followed by the addition of UDP-Glucose (5 μM) and kaempferol (1 mM). After a subsequent incubation of 3 hours, TbGT and FRET probe (250 nM) were added. Following MfeI addition, fluorescence formation was monitored using fluorometry. […] Digests were analyzed using qPCR. […]\nAssays were performed using 250 nM fluorescent probe (Sequence provided in FIG. 21) in place of the linear probe. Fluorescence was detected using a Tecan Safire^2 using the following settings: excitation wavelength 550 nm, emission wavelength 564 nm, excitation bandwidth 5 nm, emission bandwidth 5 nm, Gain (manual) 120, Number of reads 10, FlashMode High Sensitivity, Integration time 100 μs, lag time 0 μs, Z-position 12000 μm, Temperature 37° C. Development of fluorescence after MfeI addition was monitored over an 8 hour period. […]",
  "data": [
    {"smiles": "O=c1c(O)c(-c2ccc(O)cc2)oc2cc(O)cc(O)c12", "note": "[I, kaempferol]", "values": [
      {"measurement": "fluorescent reading after MfeI digestion of FRET probe", "result": 50, "unit": "RFU"}
    ]}
  ]
}
